Measurements: patent US5814612A, “Retinol derivatives and uses thereof” (priority 1992, dated 1998)
“Also recorded” adds a separate entry of the source. Like-named read-outs stand apart in the source and are kept apart here.

Tests used:
thymocytes = assay: Proliferation of anti-CD3 activated thymocytes in serum-free ITLB medium; type: cell-based, BALB/c mouse; conditions: for effectiveness relative to retinol: anti-CD3, 14HRR at 12 hour intervals; for proliferative response of anti-CD3e activated thymocytes / growth kinetics over four days: retinol 3×10^-6 M, 14HRR 6×10^-7 M, human serum 3%; for growth kinetics over four days: 10^5 cells/well
Procedure: FIG. 14A: Purified BALB/c thymocytes were activated with immobilized anti-CD3e antibody and cultivated for four days in ITLB medium with or without retinol (3×10^-6 M), 14HRR (6×10^-7 M) (fresh 14HRR was added every 12 hours), human serum (3%) or FCS (10%) at the cellular densities shown. Proliferation was assayed by tritiated thymidine incorporation into cellular DNA.
FIG. 14B: BALB/c thymocytes (10^6 /ml) were added to microtiter plates coated with titrated amounts of anti-CD3e antibody with […] retinol or without, as indicated. Proliferation was measured in hexaduplicate wells on day 3 by ^3 H thymidine incorporation assay.
Purified thymocytes (5×10^5 cells/well) were stimulated by TCR crosslinking with immobilized anti-CD3e antibody (FIG. 15A) or 0.4 μg/ml Con A (FIG. 15B) in serum-free ITLB medium. The indicated amounts of retinoids were added either once at the beginning of the experiment (marked as "1×") or every 12 hours thereafter (marked as "6×"). DNA synthesis was measured after 72 hours by tritiated thymidine uptake as described.
Purified thymocytes (10^5 cells/well) were activated with anti-CD3 antibody in ITLB medium with or without retinol (3×10^-6 M), 14HRR (6×10^-7, added every 12 hours or human serum (3%)). DNA synthesis was measured daily by a 4 hour pulse of tritiated thymidine.
Thymocytes (5×10^4 /well) were activated by immobilized anti-CD3 mAb in medium ITLB. Retinol (2×10^-6 M) was added at initiation of culture, or delayed by 12 hours and 24 hours, respectively, or omitted altogether. ^3 H thymidine pulses of 4 hours were used to measure DNA synthesis of hexaduplicate wells.
Thymuses of 3 to 6-week-old BALB/c mice were teased in serum-free RPMI medium supplemented with 1% BSA, 10^-6 M linoleic acid and antibiotics. Depletion of accessory cells was achieved by two cycles of complement-dependent lysis with a mixture of anti-IA^d (5 μg/ml) and anti-IE^d (1:500 diluted ascites fluid). Briefly, cells were incubated on ice for 30 minutes with Ia antibodies, spun down, resuspended in 1:40 diluted rabbit complement, and incubated at 37° C. for 45 minutes. Incubations and two subsequent washes were carried out with RPMI medium containing 1% BSA. Cell viability was evaluated by trypan blue dye exclusion. To determine the extent of depletion of accessory cells, samples were stained with FITC-conjugated anti-Fc receptor antibody and analyzed by flow cytometry on a FACScan instrument (Becton Dickinson).
Cells were cultured in serum-free medium, referred to as ITLB, containing RPMI 1640 supplemented with 8×10^-7 M insulin (5 μg/ml), 7×10^-8 M transferrin (5 μg/ml), 2×10^-6 M linoleic acid, 2×10^-6 M delipidated BSA (0.12 mg/ml), 2 mM L-glutamine, 1 mM sodium pyruvate and antibiotics. They were seeded into 96-well flat-bottom plates at varying cellular densities in a final volume of 100 μl. In control experiments, cells were cultured in medium containing 10% FCS or 3% human serum and 5×10^-5 M 2ME. T cells and thymocytes were activated with immobilized, purified anti-mAb CD3e or by the addition of Con A in the presence or absence of different concentrations of retinoids. Unless indicated otherwise, retinoids were replenished every 12 hours to maintain a reasonably constant concentration of these labile compounds in culture. […] Cultures were carried out in duplicate. Plates were incubated at 37° C. in a humidified 5% CO2 atmosphere. Cellular proliferation was determined by [^3 H] thymidine uptake (0.5 uCi/well; New England Nuclear, Boston, Mass.) after the incubation times indicated for each experiment with a 4 hour labeling pulse.

T cells = assay: T cell activation and proliferation, retinol cofactor requirement; type: cell-based, murine
Procedure: They were seeded into 96-well flat-bottom plates at varying cellular densities in a final volume of 100 μl. In control experiments, cells were cultured in medium containing 10% FCS or 3% human serum and 5×10^-5 M 2ME. […] Cultures were carried out in duplicate. Plates were incubated at 37° C. in a humidified 5% CO2 atmosphere. Cellular proliferation was determined by [^3 H] thymidine uptake (0.5 uCi/well; New England Nuclear, Boston, Mass.) after the incubation times indicated for each experiment with a 4 hour labeling pulse. Cells were harvested onto glass filter and [^3 H]TdR incorporation was determined by liquid scintillation counting. The data presented are the means of duplicate or six replicate cultures. The restriction to duplicate measurements was necessary to conserve scarce 14HRR. […] Each experiment was repeated at least twice.

| Compound | effectiveness relative to retinol (thymocytes) | dose optimum (thymocytes; provided at 12 hour intervals) [nM] | proliferative response of anti-CD3e activated thymocytes (thymocytes) | growth kinetics over four days (thymocytes) | effect of a single addition at start of culture (thymocytes; single addition) | ability to substitute for retinol in T cell activation (words) (T cells) | ability to substitute for retinol in T cell activation (words) (T cells; listed as retinoic acid) | reduction of sufficient retinol concentration with repeated feeding (thymocytes; replenished twice daily, 3-day culture) | T cell activation in FCS-containing medium (T cells; FCS-containing medium, absence of APC) |
| --- | --- | --- | --- | --- | --- | --- | --- | --- | --- |
| CC(C=CC=C(C)C(O)CO)=CC=C1C(C)=CCCC1(C)C (stereo not drawn) [14HRR, 14-hydroxy-4,14-retro-retinol] | as potent as retinol | 500 | vigorous responses were elicited | exponential growth | ineffective; also recorded: does not enable sustained proliferation; also recorded: insufficient to drive T cell proliferation | effectively supports T cell activation in conjunction with a mitogen in lieu of retinol; also recorded: capable of supporting activation and sustaining proliferation of T cells; also recorded: capable of supporting T cell activation and proliferation in the absence of any extraneous source of retinal |  |  |  |
| CC1=C(/C=C/C(C)=C/C=C/C(C)=C/C(=O)O)C(C)(C)CCC1 [all-trans retinoic acid] | completely inactive |  |  |  |  |  | cannot be satisfied by retinoic acid; also recorded: T lymphocytes neither respond to externally provided retinoic acid |  |  |
| CC1=C(/C=C/C(C)=C/C=C/C(C)=C/CO)C(C)(C)CCC1 [retinol, all-trans retinol] |  |  | vigorous responses were elicited | exponential growth |  |  |  | five- to ten-fold lower | no activation in the absence of APC, whether or not additional retinol is supplied |
